Patent US12612384B2, “Heterocyclic CYP4A inhibitor compounds and compositions thereof” (MBD CO., LTD., priority 2021, dated 2026)
Read-outs that look alike come from different tables or passages of the source.

Target: T1, CYP4A (Homo sapiens, UniProt Q02928)
T1 construct: purchased; host or cells: bacterial membranes ('bactosome')
T1 sequence (Q02928 5-519): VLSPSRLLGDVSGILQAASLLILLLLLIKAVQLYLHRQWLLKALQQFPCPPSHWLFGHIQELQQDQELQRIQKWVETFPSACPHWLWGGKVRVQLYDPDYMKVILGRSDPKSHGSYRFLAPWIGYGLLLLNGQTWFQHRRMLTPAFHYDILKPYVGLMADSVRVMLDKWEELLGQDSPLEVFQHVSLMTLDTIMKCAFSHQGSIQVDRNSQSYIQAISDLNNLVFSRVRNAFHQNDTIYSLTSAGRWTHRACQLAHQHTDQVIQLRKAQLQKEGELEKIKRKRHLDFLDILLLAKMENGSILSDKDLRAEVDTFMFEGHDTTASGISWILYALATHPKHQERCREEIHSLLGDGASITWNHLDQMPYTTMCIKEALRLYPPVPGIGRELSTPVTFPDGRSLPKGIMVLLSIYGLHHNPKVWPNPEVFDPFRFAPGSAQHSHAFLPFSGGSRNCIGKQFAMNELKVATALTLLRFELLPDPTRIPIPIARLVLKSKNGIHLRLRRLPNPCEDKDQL
Assay: CYP4A enzyme assay (luminescence, Luciferin-ME)
Type: biochemical
Details: Compound concentration 5 μM
Summary of the method: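 Compounds (5 μM) were preincubated 15 min at room temperature with CYP4A bactosomes in 100 mM KPO4, 0.1% BSA, 1 mM DTT. Reaction ran 30 min at room temperature after adding 5 mM Luciferin-ME and NADPH regeneration system. Luminescence after 15 min with detection reagent; inhibition judged by comparing well signals.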

[1] = 50%-70%, read-out: % Inhibition 50%-70%
[2] = Greater than 90%, read-out: % Inhibition Greater than 90%
[3] = 70%-90%, read-out: % Inhibition 70%-90%

inhibition at 5 µM [2] [%]	inhibition at 5 µM [3] [%]	Compound	also measured
–	–	O=C(C1CCCN(S(=O)(=O)CCCO)C1)N1CCN(c2ccnc3cc(F)ccc23)CC1 (stereo not drawn) [Example 131, (4-(7-fluoroquinolin-4-yl)piperazin-1-yl)(1-((3-hydroxypropyl)sulfonyl)piperidin-3-yl)methanone]	inhibition at 5 µM [1]: 50 to 70%
–	–	COC(=O)CCS(=O)(=O)N1CCCC(C(=O)N2CCN(c3ccnc4ccccc34)CC2)C1 (stereo not drawn) [Example 132, methyl 3-((3-(4-(quinolin-4-yl)piperazine-1-carbonyl)piperidin-1-yl)sulfonyl)propanoate]	inhibition at 5 µM [1]: 50 to 70%
–	–	O=C(C1CCCN(S(=O)(=O)CCCO)C1)N1CCN(c2ccnc3ccccc23)CC1 (stereo not drawn) [Example 133, (1-((3-hydroxypropyl)sulfonyl)piperidin-3-yl)(4-(quinolin-4-yl)piperazin-1-yl)methanone]	inhibition at 5 µM [1]: 50 to 70%
> 90	–	O=C([C@@H]1CCN(S(=O)(=O)c2ncn[nH]2)C1)N1CCN(c2ccnc3cc(F)ccc23)CC1 [Example 134, (R)-(1-((1H-1,2,4-triazol-5-yl)sulfonyl)pyrrolidin-3-yl)(4-(7-fluoroquinolin-4-yl)piperazin-1-yl)methanone]	–
–	70 to 90	O=C(C1CCN(S(=O)(=O)c2ncn[nH]2)CC1)N1CCN(c2ccnc3cc(F)ccc23)CC1 [Example 135, (1-((1H-1,2,4-triazol-5-yl)sulfonyl)piperidin-4-yl)(4-(7-fluoroquinolin-4-yl)piperazin-1-yl)methanone]	–
> 90	–	O=C([C@H]1CCN(S(=O)(=O)c2ncn[nH]2)C1)N1CCN(c2ccnc3ccc(F)cc23)CC1 [Example 136, (S)-(1-((1H-1,2,4-triazol-5-yl)sulfonyl)pyrrolidin-3-yl)(4-(6-fluoroquinolin-4-yl)piperazin-1-yl)methanone]	–
> 90	–	O=C(C1CN(S(=O)(=O)c2ncn[nH]2)C1)N1CCN(c2ccnc3cc(F)ccc23)CC1 [Example 137, (1-((1H-1,2,4-triazol-5-yl)sulfonyl)azetidin-3-yl)(4-(7-fluoroquinolin-4-yl)piperazin-1-yl)methanone]	–
–	70 to 90	O=C([C@H]1CCN(S(=O)(=O)c2ncn[nH]2)C1)N1CCN(c2ccnc3c(F)cccc23)CC1 [Example 138, (S)-(1-((1H-1,2,4-triazol-5-yl)sulfonyl)pyrrolidin-3-yl)(4-(8-fluoroquinolin-4-yl)piperazin-1-yl)methanone]	–
–	70 to 90	Cn1cnc(S(=O)(=O)N2CC[C@H](C(=O)N3CCN(c4ccnc5cc(F)ccc45)CC3)C2)n1 [Example 139, (S)-(4-(7-fluoroquinolin-4-yl)piperazin-1-yl)(1-((1-methyl-1H-1,2,4-triazol-3-yl)sulfonyl)pyrrolidin-3-yl)methanone]	–
> 90	–	O=C([C@H]1CCN(S(=O)(=O)c2ncn(CCO)n2)C1)N1CCN(c2ccnc3cc(F)ccc23)CC1 [Example 140, (S)-(4-(7-fluoroquinolin-4-yl)piperazin-1-yl)(1-((1-(2-hydroxyethyl)-1H-1,2,4-triazol-3-yl)sulfonyl)pyrrolidin-3-yl)methanone]	–
–	70 to 90	CC(C)n1cnc(S(=O)(=O)N2CC[C@H](C(=O)N3CCN(c4ccnc5cc(F)ccc45)CC3)C2)n1 [Example 141]	–
> 90	–	CC(=O)Cn1cnc(S(=O)(=O)N2CC[C@H](C(=O)N3CCN(c4ccnc5cc(F)ccc45)CC3)C2)n1 [Example 142, (S)-1-(3-((3-(4-(7-fluoroquinolin-4-yl)piperazine-1-carbonyl)pyrrolidin-1-yl)sulfonyl)-1H-1,2,4-triazol-1-yl)propan-2-one]	–
> 90	–	COCCn1cnc(S(=O)(=O)N2CC[C@H](C(=O)N3CCN(c4ccnc5cc(F)ccc45)CC3)C2)n1 [Example 143, (S)-(4-(7-fluoroquinolin-4-yl)piperazin-1-yl)(1-((1-(2-methoxyethyl)-1H-1,2,4-triazol-3-yl)sulfonyl)pyrrolidin-3-yl)methanone]	–
–	70 to 90	NCCn1cnc(S(=O)(=O)N2CC[C@H](C(=O)N3CCN(c4ccnc5cc(F)ccc45)CC3)C2)n1 [Example 144, (S)-(1-((1-(2-aminoethyl)-1H-1,2,4-triazol-3-yl)sulfonyl)pyrrolidin-3-yl)(4-(7-fluoroquinolin-4-yl)piperazin-1-yl)methanone]	–
–	70 to 90	O=C([C@H]1CCN(S(=O)(=O)c2ncnn2CCO)C1)N1CCN(c2ccnc3cc(F)ccc23)CC1 [Example 145, (S)-(4-(7-fluoroquinolin-4-yl)piperazin-1-yl)(1-((1-(2-hydroxyethyl)-1H-1,2,4-triazol-5-yl)sulfonyl)pyrrolidin-3-yl)methanone]	–
> 90	–	O=C([C@H]1CCN(S(=O)(=O)c2ncc[nH]2)C1)N1CCN(c2ccnc3cc(F)ccc23)CC1 [Example 146, (S)-(1-((1H-imidazol-2-yl)sulfonyl)pyrrolidin-3-yl)(4-(7-fluoroquinolin-4-yl)piperazin-1-yl)methanone]	–
> 90	–	O=C([C@@H]1CCN(S(=O)(=O)c2ncc[nH]2)C1)N1CCN(c2ccnc3cc(F)ccc23)CC1 [Example 147, (R)-(1-((1H-imidazol-2-yl)sulfonyl)pyrrolidin-3-yl)(4-(7-fluoroquinolin-4-yl)piperazin-1-yl)methanone]	–
> 90	–	O=C([C@H]1CCN(S(=O)(=O)c2nccn2CCO)C1)N1CCN(c2ccnc3cc(F)ccc23)CC1 [Example 148, (S)-(4-(7-fluoroquinolin-4-yl)piperazin-1-yl)(1-((1-(2-hydroxyethyl)-1H-imidazol-2-yl)sulfonyl)pyrrolidin-3-yl)methanone]	–
> 90	–	COCCn1ccnc1S(=O)(=O)N1CC[C@H](C(=O)N2CCN(c3ccnc4cc(F)ccc34)CC2)C1 [Example 149, (S)-(4-(7-fluoroquinolin-4-yl)piperazin-1-yl)(1-((1-(2-methoxyethyl)-1H-imidazol-2-yl)sulfonyl)pyrrolidin-3-yl)methanone]	–
–	70 to 90	NCCn1ccnc1S(=O)(=O)N1CC[C@H](C(=O)N2CCN(c3ccnc4cc(F)ccc34)CC2)C1 [Example 150, (S)-(1-((1-(2-aminoethyl)-1H-imidazol-2-yl)sulfonyl)pyrrolidin-3-yl)(4-(7-fluoroquinolin-4-yl)piperazin-1-yl)methanone]	–
–	70 to 90	Cc1nn(C)c(C)c1S(=O)(=O)N1CC[C@H](C(=O)N2CCN(c3ccnc4ccccc34)CC2)C1 [Example 151, (S)-(4-(quinolin-4-yl)piperazin-1-yl)(1-((1,3,5-trimethyl-1H-pyrazol-4-yl)sulfonyl)pyrrolidin-3-yl)methanone]	–
–	70 to 90	Cc1nn(C)c(C)c1S(=O)(=O)N1CC[C@@H](C(=O)N2CCN(c3ccnc4ccccc34)CC2)C1 [Example 152, (R)-(4-(quinolin-4-yl)piperazin-1-yl)(1-((1,3,5-trimethyl-1H-pyrazol-4-yl)sulfonyl)pyrrolidin-3-yl)methanone]	–
–	–	O=C(C1CCN(Cc2ccc([N+](=O)[O-])cc2)C1)N1CCN(c2ccnc3ccccc23)CC1 (stereo not drawn) [Example 153, (1-(4-nitrobenzyl)pyrrolidin-3-yl)(4-(quinolin-4-yl)piperazin-1-yl)methanone]	inhibition at 5 µM [1]: 50 to 70%
–	–	Cn1cnnc1CN1CC[C@H](C(=O)N2CCN(c3ccnc4cc(F)ccc34)CC2)C1 [Example 154, (S)-(4-(7-fluoroquinolin-4-yl)piperazin-1-yl)(1-((4-methyl-4H-1,2,4-triazol-3-yl)methyl)pyrrolidin-3-yl)methanone]	inhibition at 5 µM [1]: 50 to 70%
–	70 to 90	O=C(C1CCN(Cc2nnn[nH]2)C1)N1CCN(c2ccnc3cc(F)ccc23)CC1 (stereo not drawn) [Example 155, (1-((1H-tetrazol-5-yl)methyl)pyrrolidin-3-yl)(4-(7-fluoroquinolin-4-yl)piperazin-1-yl)methanone]	–
> 90	–	O=C([C@H]1CCN(S(=O)(=O)c2cccnc2)C1)N1CCN(c2ccnc3cc(F)ccc23)CC1 [Example 156, (S)-(4-(7-fluoroquinolin-4-yl)piperazin-1-yl)(1-(pyridin-3-ylsulfonyl)pyrrolidin-3-yl)methanone]	–
> 90	–	O=C([C@H]1CCN(S(=O)(=O)c2ccccn2)C1)N1CCN(c2ccnc3cc(F)ccc23)CC1 [Example 157, (S)-(4-(7-fluoroquinolin-4-yl)piperazin-1-yl)(1-(pyridin-2-ylsulfonyl)pyrrolidin-3-yl)methanone]	–
> 90	–	O=C([C@H]1CCN(S(=O)(=O)c2ccc([N+](=O)[O-])cc2)C1)N1CCN(c2ccnc3cc(F)ccc23)CC1 [Example 158, (S)-(4-(7-fluoroquinolin-4-yl)piperazin-1-yl)(1-((4-nitrophenyl)sulfonyl)pyrrolidin-3-yl)methanone]	–
> 90	–	O=C([C@H]1CCN(S(=O)(=O)c2ncc[nH]2)C1)N1CCN(c2ccnc3ccc(F)cc23)CC1 [Example 159, (S)-(1-((1H-imidazol-2-yl)sulfonyl)pyrrolidin-3-yl)(4-(6-fluoroquinolin-4-yl)piperazin-1-yl)methanone]	–
> 90	–	O=C([C@H]1CCN(S(=O)(=O)c2nccn2CCO)C1)N1CCN(c2ccnc3ccc(F)cc23)CC1 [Example 160, (S)-(4-(6-fluoroquinolin-4-yl)piperazin-1-yl)(1-((1-(2-hydroxyethyl)-1H-imidazol-2-yl)sulfonyl)pyrrolidin-3-yl)methanone]	–
